In data set [1] the test system is Staphylococcus aureus isolates (n = 104). Kind of data set: microbe, parasite or virus in culture. As to the method: Comparator antibiotics were supplied by Micromyx, and stock solutions were prepared on the first day of testing using solvents recommended by CLSI (1). Stock solutions of all compounds were made at 40× the final testing concentration and stored at −80° C. prior to testing. Information regarding compound source, catalog and lot number, testing concentrations and drug diluent for the comparators and test agent are detailed below in Table 3.
The test organisms evaluated in this study consisted of clinical isolates from the Micromyx Repository and reference isolates from the American Type Culture Collection (ATCC; Manassas, VA). The clinical isolates were obtained from USA hospitals. Upon initial receipt at Micromyx, the organisms were sub-cultured onto an appropriate agar medium. Following incubation, colonies were harvested from these plates and cell suspensions prepared and frozen at −80° C. with a cryoprotectant. Prior to testing, the isolates were streaked from frozen vials onto Trypticase Soy Agar with 5% sheep blood (Becton Dickenson [BD]; Sparks, MD; Lot Nos. 7173618, 7166759, 7208688, 72144895, 7228505 and Remel Lenexa, KS Lot No. 212574). Plates were incubated at 35° C. overnight.
Mueller Hinton II broth (MHB II; BD; Lot Nos. 6258541 and 7143896) was used for MIC testing of aerobic organisms.
MIC values were determined using a broth microdilution procedure described by CLSI (1, 3). Automated liquid handlers (Multidrop 384, Labsystems, Helsinki, Finland; Biomek 2000 and Biomek FX, Beckman Coulter, Fullerton CA) were used to conduct serial dilutions and liquid transfers.
To prepare the drug mother plates, which would provide the serial drug dilutions for the replicate daughter plates, the wells of columns 2-12 of standard 96-well microdilution plates (Costar 3795) were filled with 150 μl of the designated diluent for each row of drug. The test articles and comparator compounds (300 μl at 40× the highest concentration to be tested) were dispensed into the appropriate wells in column 1. The Biomek 2000 was then used to make 2-fold serial dilutions in the mother plates from column 1 through column 11. The wells of Column 12 contained no drug and served as the organism growth control wells for the assay.
The daughter plates were loaded with 185 μL per well of MHB II using the Multidrop 384. The daughter plates were completed on the Biomek FX instrument which transferred 5 μL of drug solution from each well of a mother plate to the corresponding well of each daughter plate in a single step. A standardized inoculum of each test organism was prepared per CLSI methods (1). The inoculum for each organism was dispensed into sterile reservoirs divided by length (Beckman Coulter), and the Biomek 2000 was used to inoculate the plates. Daughter plates were placed on the Biomek 2000 work surface in reverse orientation so that inoculation took place from low to high drug concentration.
Plates were stacked 3-4 high, covered with a lid on the top plate, placed in plastic bags, and incubated at 35° C. for 16 to 20 hrs. Following incubation, the microplates were removed from the incubator and viewed from the bottom using a plate viewer. […] The MIC was read and recorded as the lowest concentration of drug that inhibited visible growth of the organism.
Clinical breakpoints to determine percent resistance within a given organism group were obtained from CLSI (3), with the exception of colistin for K. pneumoniae, Enterobacter spp., and E. coli, which are only available from EUCAST.

For data set [2] the following is noted: mouse, in vivo, iv, 3 mg/kg.
From the text: Male CD-1 mice will be received from an approved vendor and allowed to acclimate for a minimum of two days. Fasting will be not required.
All dosing syringes will be weighed prior to and following dosing. IV doses will be administered as a slow bolus (over ˜30 seconds) via direct venipuncture of a tail vein. All animals will be observed at dosing and each scheduled collection. All abnormalities will be recorded.
Terminal blood samples will be collected via cardiac puncture following inhalation anesthesia.
Sample Processing and Storage: Blood samples will be collected into K2EDTA tubes and stored on wet ice. Whole blood will be processed to plasma by centrifugation (3500 rpm at 5° C.) within 30 minutes of collection. Plasma samples will be split into 2 equal aliquots and each transferred into 96 well plates (matrix tubes) and stored at −80° C. until analysis. Administered doses will be determined gravimetrically.
Prior to extraction, a known concentration of a mass-adjusted internal standard (IS) will be added to assess recovery and allow for quantitation. Purified samples will be further subjected to high-performance liquid chromatography (HPLC) using C18 300 or 130 angstrom columns prior to MS/MS analysis. Multiple charge states will be observed by MS, so MS/MS will be employed to enable multiple reaction monitoring (MRM) analyses to determine the most MRM transitions with the highest signal-to-noise gain. Compound plasma concentrations will be determined by comparing to and compensating with co-purified IS peak intensity and validated calibrated standard curves.
Pharmacokinetic parameters will be calculated using non-compartmental methods as implemented in the Phoenix® WinNonlin® ver. 6.3 comprehensive TK/PK analysis software program (Pharsight Corporation; Mountain View, CA) using an IV infusion model. Pharmacokinetic analysis will be conducted using a 30-minute intravenous infusion time. Therefore, 30 minutes will be added to each sample time point postdose to obtain nominal time for TK analysis. Nominal times and dosage levels will be used for all calculations. Values below the lower limit of quantitation (BLQ) will be assigned a value of zero for the pharmacokinetic calculations. Microsoft® Excel® 2013 will be used for receipt of bioanalytical data, minor formatting, including setting BLQ values to “0”, transfer into WinNonlin® for PK analysis, and calculation of the mean when an approximated value will be excluded. All plasma concentration data from all animals will be included in the analysis. Graphical presentations will be performed using Microsoft® Excel® 2013.
Data set [3] deals with P. aeruginosa strains (PAO1 and 2 clinical isolates). The data set can be described thus: Determination of bacterial resistance, passage at 0.5×MIC with daily MIC. Conditions: three P. aeruginosa strains, exposure at 0.5×MIC, FIG. 20. It counts as cell-based, Pseudomonas aeruginosa. The source says:
Each antibiotic was compared for their propensity to select for bacterial resistance phenotypes in vitro.

The subject of data set [4] is Pseudomonas aeruginosa ATCC 27853 (non-MDR; QC). Conditions: P. aeruginosa ATCC 27853; established CLSI QC range; cited from earlier work.
The mark [5] stands for this setting: Staphylococcus aureus (n = 104), all methicillin-resistant.

In brackets after ≈: the same amount, converted by molar mass. Peptide text beside a SMILES is read from it.

In data set [1] (S. aureus MRSA, n=104), `CC(C)[C@H](NC(=O)[C@H](Cc1c[nH]c2ccccc12)NC(=O)[C@H](CCCNC(=N)N)NC(=O)[C@H](CCCNC(=N)N)NC(=O)[C@@H](NC(=O)[C@@H](NC(=O)[C@H](CCCNC(=N)N)NC(=O)[C@@H](NC(=O)[C@@H](NC(=O)[C@H](CCCNC(=N)N)NC(=O)[C@H](CCCNC(=N)N)NC(=O)[C@H](Cc1c[nH]c2ccccc12)NC(=O)[C@@H](NC(=O)[C@H](CCCNC(=N)N)NC(=O)[C@H](CCCNC(=N)N)NC(=O)[C@@H](NC(=O)[C@H](CCCNC(=N)N)NC(=O)[C@H](CCCNC(=N)N)NC(=O)[C@@H](NC(=O)[C@H](Cc1c[nH]c2ccccc12)NC(=O)[C@H](CCCNC(=N)N)NC(=O)[C@@H](N)CCCNC(=N)N)C(C)C)C(C)C)C(C)C)C(C)C)C(C)C)C(C)C)C(C)C)C(=O)N[C@@H](CCCNC(=N)N)C(=O)N[C@@H](CCCNC(=N)N)C(N)=O` [SEQ ID NO: 1] (H-RRWVRRVRRVWRRVVRVVRRWVRR-NH2) came in with an MIC50 of 4 µg/mL (≈ 1.18 µM), an MIC90 of 8 µg/mL (≈ 2.35 µM) and an MIC range of 1 to 16 µg/mL. In data set [1] (setting [5]), the MIC50 was 4 µg/mL (≈ 1.18 µM), the MIC90 was determined as 8 µg/mL (≈ 2.35 µM) and the “Mode (MIC)” value stood at 4 µg/mL. Also, the Tmax in data set [2] amounted to 2 min.

Take Colistin [reference compound]: in data set [3], the “time to development of resistance (fold MIC >10)” value was at most 13 days. Besides, the “MIC QC range (in parentheses under the MIC)” value in data set [4] was “(0.5-4) μg/mL”.

The values are drawn from patent US20240115654A1, “INTRAVENOUS ADMINISTRATION OF ENGINEERED ANTIMICROBIAL AMPHIPHILIC PEPTIDES” (priority 2021, published 2024).
